Results from patent US11596623B2, “Methods for treating virus infection or proliferation” (HOWARD UNIVERSITY, priority 2018, dated 2023).

Key:
RACK1 = biological target: T1, RACK1 (Homo sapiens, UniProt P63244); assay: RACK1 protein western in EV-D68 infected HEp-2 cells; type: cell-based; details: 48 h
T1 construct: endogenous in cells; host or cells: HEp-2 cells (human laryngeal carcinoma line), virus-infected
Protocol: HEp-2 cells were grown to 80-90% confluency in Dulbecco's Modified Eagle's medium (DMEM) supplemented with 10% fetal calf serum (FCS) and 1% penicillin-streptomycin (PS) and fungicide. The virus and the indicated concentration of compounds were added and incubated for 48 h. After washing with PBS, the cell lysates were collected and were run in a Biorad XT-Criterion gel and transferred to a PVDF membrane. The membrane was blotted with an antibody directed against the EVD68 major structural protein VP1 purchased from Genetex (Irvine, Calif.). An anti-mouse IgG-HRP secondary antibody and Biorad's Western ECL substrate-Clarity was used to label the bands and the image was obtained in a Biorad Gel doc system. […] The tubulin antibody was used as the loading control.
HEp-2 cells were grown to 80-90% confluency in Dulbecco's Modified Eagle's medium (DMEM) supplemented with 10% fetal calf serum FCS and 1% penicillin-streptomycin (PS) and fungicide. The representative virus (EV-D68) and the indicated concentration of compounds were added and incubated for 48 h. After washing with PBS, the cell lysates were collected and were run in a Biorad XT-Criterion gel and transferred to a PVDF membrane. The membrane was blotted with an antibody directed against the EV-D68 major structural protein VP1 purchased from Genetex (Irvine, Calif.). […]

HSV-1 ICP0 = assay: Real-time RT-PCR of HSV-1 ICP0 transcript in HEp-2 cells; type: cell-based; details: 12 and 24 hpi, versus DMSO
Excerpt: The total transcript levels were quantified using actin expression as an internal control. The cDNA obtained immediately after the virus and drug transfection(s) was set as a baseline value. The normalized expression values were transformed to the log 10 value. The data plot represents mean t standard error calculated from three replicates.
Following instructions of the manufacturers, total RNA was isolated using Tri Reagent® (Ambion, Inc., Austin, Tex.). To quantitatively examine the mRNA level of HSV-1 ICP0 from the infected cells, real-time RT-PCR was undertaken using the QuantiTect SYBR Green RT-PCR kit (QIAGEN, Valencia, Calif.). […] Fluorescence (captured at 80° C.) was determined to be absent from the signal generated by primer dimers. Data were collected and recorded by the BIORAD CFX Manager software. The relative quantity of the ICP0 transcripts at the indicated time points was normalized to the relative quantity of the reference gene actin at the same time points and then the log10 copy number of the normalized RNA transcripts were calculated and presented on a bar chart. A melting temperature curve analysis was obtained by measuring (after the amplification cycles) the fluorescence during a period of warming from 60° C. to 95° C. […]

Compound | RACK1 protein level (RACK1) | ICP0 mRNA level (HSV-1 ICP0)
Nn1c(S)nnc1-c1cc(Cl)cc(Cl)c1 [SD29-14] | loss of RACK1 protein | 
Nn1c(S)nnc1-c1ccc(F)cc1 [SD-29] |  | essentially showed the same level of ICP0 mRNA
